# Biological target: human HPK1 (MAP4K1) (Homo sapiens (Human), UniProt Q92918)
# Experiment: HPK1 IC50 Assay (TR-FRET biochemical kinase assay, STK S1 peptide substrate)
# Conditions: recombinant human HPK1 kinase domain 0.15 nM, 10 μM ATP, 1 μM STK S1 peptide; geometric mean
# Summary of the method: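 Pre-activated recombinant kinase domain (insect cells; 0.15 nM) pre-incubated with compounds for 15 min, then 10 μM ATP and 1 μM STK S1 peptide added for 3 h at 25 °C in BES pH 7.0. Phosphorylation read by HTRF (665/620 nm). IC50 from four-parameter fits normalized to staurosporine/DMSO controls, geometric mean of repeats.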
# Chain of human HPK1 (MAP4K1) (Q92918 17-274): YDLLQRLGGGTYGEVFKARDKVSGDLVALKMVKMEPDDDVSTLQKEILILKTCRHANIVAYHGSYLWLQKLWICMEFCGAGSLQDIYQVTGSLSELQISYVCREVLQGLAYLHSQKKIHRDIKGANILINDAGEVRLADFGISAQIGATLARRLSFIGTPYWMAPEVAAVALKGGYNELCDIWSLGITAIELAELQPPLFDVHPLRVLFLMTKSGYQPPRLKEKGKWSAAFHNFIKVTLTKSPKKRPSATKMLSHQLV
row,IC50,Compound
1,300 pM,CC(C)n1cnc2cc(-c3ccc4c(c3)N([C@H]3C[C@@H](N5CCCCC5)C3)C(=O)C43CCN(C(=O)C4CC4)CC3)nc(Nc3ccncc3F)c21 [Example 143]
2,300 pM,CC(C)n1cnc2cc(-c3ccc4c(c3)N([C@H]3C[C@@H](N5CCCCC5)C3)C(=O)C43CCN(C(=O)C(C)(C)C)CC3)nc(Nc3ccncc3F)c21 [Example 170]
3,300 pM,CC(C)n1cnc2cc(-c3ccc4c(c3)N([C@H]3C[C@@H](N5CCCCC5)C3)C(=O)C43CCN(C(=O)C4(C#N)CC4)CC3)nc(Nc3ccncc3F)c21 [Example 142]
4,3200 pM,CC(C)n1cnc2cc(-c3ccc4c(c3)N([C@H]3C[C@@H](N5CCCC5)C3)C(=O)C4(C)C)nc(Nc3ccncc3F)c21 [Example 188]
5,300 pM,CC(=O)N1CCC2(CC1)C(=O)N([C@H]1C[C@@H](N3CC4CCC3CC4)C1)c1cc(-c3cc4ncn(C(C)C)c4c(Nc4ccncc4F)n3)ccc12 [Example 193]

row,Compound,IC50
1,"CC(C)n1cnc2cc(-c3ccc4c(c3)N([C@H]3C[C@@H](N5CCCCC5)C3)C(=O)C43CCN(C4COC4)CC3)nc(Nc3ccncc3F)c21 [Example 174, 6-(4-((3-fluoropyridin-4-yl)amino)-3-isopropyl-3H-imidazo[4,5-c]pyridin-6-yl)-1′-(oxetan-3-yl)-1-((1s,3s)-3-(piperidin-1-yl)cyclobutyl)spiro[indoline-3,4′-piperidin]-2-one]",500 pM

# Same assay, conditions: recombinant human HPK1 kinase domain 0.15 nM, 10 μM ATP, 1 μM STK S1 peptide; geometric mean of multiple experiments
row,Compound,IC50
1,CC(C)n1cnc2cc(-c3ccc4c(c3)N([C@H]3C[C@@H](N5CCC(C)(C)C5)C3)C(=O)C43CCN(C(=O)[C@@H]4CCCO4)CC3)nc(Nc3ccncc3F)c21 [Example 13],200 pM
2,"CC(C)n1cnc2cc(-c3ccc4c(c3)N([C@H]3C[C@@H](N5CCC(C)(C)C5)C3)C(=O)C43CCN(C(=O)C4CCO4)CC3)nc(Nc3ccncc3F)c21 (mixture of isomers) [Example 78, 1-((1s,3s)-3-(3,3-dimethylpyrrolidin-1-yl)cyclobutyl)-6-(4-((3-fluoropyridin-4-yl)amino)-3-isopropyl-3H-imidazo[4,5-c]pyridin-6-yl)-1′-(oxetane-2-carbonyl)spiro[indoline-3,4′-piperidin]-2-one]",700 pM
3,CC(C)n1cnc2cc(-c3ccc4c(c3)N([C@H]3C[C@@H](N5CC[C@@H](C)C5)C3)C(=O)C43CCN(C4COC4)CC3)nc(Nc3ccncc3F)c21 [Example 44],1100 pM
4,CC[C@H](C)n1cnc2cc(-c3ccc4c(c3)N([C@H]3C[C@@H](N5CCC(C)(C)C5)C3)C(=O)C43CCN(C4COC4)CC3)nc(Nc3ccncc3F)c21 [Example 90],300 pM
5,CC(C)n1cnc2cc(-c3ccc4c(c3)N([C@H]3C[C@@H](N5CCCCC5)C3)C(=O)C43CCN(C4COC4)CC3)nc(Nc3cc(F)ncc3F)c21 [Example 92],1900 pM
6,CC(C)n1cnc2cc(-c3ccc4c(c3)N([C@H]3C[C@@H](N5CCCCC5)C3)C(=O)C43CCN(C(=O)C4(C)CCO4)CC3)nc(Nc3ccncc3F)c21 (some centres unmarked) [Example 11],200 pM
7,CC(C)n1cnc2cc(-c3ccc4c(c3)N([C@H]3C[C@@H](N5CCC(C)(C)C5)C3)C(=O)C43CCN(C(=O)C4CCCCO4)CC3)nc(Nc3ccncc3F)c21 (some centres unmarked) [Example 24],90 pM

# More lines, now with the values ahead:
row,IC50,Compound
1,2100 pM,Cc1cc(Nc2nc(-c3ccc4c(c3)N([C@H]3C[C@@H](NCC(C)(C)O)C3)C(=O)C4(C)C)cc3ncn(C(C)C)c23)c(F)cn1 [Example 53]
2,200 pM,CC(C)n1cnc2cc(-c3ccc4c(c3)N([C@H]3C[C@@H](N5CCCC6(CC6)C5)C3)C(=O)C43CCN(C(=O)C4(C)COC4)CC3)nc(Nc3ccncc3F)c21 [Example 35]
3,200 pM,CCn1cnc2cc(-c3ccc4c(c3)N([C@H]3C[C@@H](N5CCCCC5)C3)C(=O)C43CCN(C(=O)[C@@H](C)O)CC3)nc(Nc3ccc(F)nc3F)c21 [Example 73]
4,500 pM,"CC(=O)N1CCC2(CC1)C(=O)N([C@H]1C[C@@H](N3CCCCC3)C1)c1cc(-c3cc4ncn(C(C)C)c4c(Nc4ccncc4F)n3)ccc12 [Example 67, 1′-acetyl-6-(4-((3-fluoropyridin-4-yl)amino)-3-isopropyl-3H-imidazo[4,5-c]pyridin-6-yl)-1-((1s,3s)-3-(piperidin-1-yl)cyclobutyl)spiro[indoline-3,4′-piperidin]-2-one]"

# — patent publication US11071730B2, “Substituted 6-azabenzimidazole compounds” (Gilead Sciences, Inc., priority 2018, dated 2021)
